Data published in the supplement of paper PMC10307832.

Tests used:
Test in all cases: relative viability (nuclei count vs DMSO), 5 days (fraction); higher = more cells survive
[1] = test system: A-427
How it was run: (§1)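 Five library-drug doses in √10 steps were combined with a fixed anchor-drug dose, or a single drug was given alone, by pin tool to lung cancer cell lines in 1536-well plates the day after seeding. Nuclei were stained and counted after 5 days. Relative viability is the nuclei count in treated wells over that in vehicle wells, taken as the median of duplicate plates.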

[2] = test system: CAL-12T
How it was run: as §1

[3] = test system: COR-L 105
How it was run: as §1

[4] = test system: EMC-BAC-2
How it was run: as §1

[5] = test system: HARA
How it was run: as §1

[6] = test system: HCC-366
How it was run: as §1

[7] = test system: HCC-827
How it was run: as §1

[8] = test system: HOP-62
How it was run: as §1

[9] = test system: LCLC-103H
How it was run: as §1

[10] = test system: NCI-H1355
How it was run: as §1

[11] = test system: NCI-H1395
How it was run: as §1

[12] = test system: NCI-H1437
How it was run: as §1

[13] = test system: NCI-H1755
How it was run: as §1

[14] = test system: NCI-H1792
How it was run: as §1

[15] = test system: NCI-H1915
How it was run: as §1

[16] = test system: NCI-H1975
How it was run: as §1

[17] = test system: NCI-H2009
How it was run: as §1

[18] = test system: NCI-H2228
How it was run: as §1

[19] = test system: NCI-H23
How it was run: as §1

[20] = test system: NCI-H460
How it was run: as §1

[21] = test system: NCI-H727
How it was run: as §1

[22] = test system: SK-LU-1
How it was run: as §1

[23] = test system: SW 1573
How it was run: as §1

Work on `C[C@@H]1CN(CC(=O)Nc2ccc3c(c2)Cc2cccc(-c4cc(=O)cc(N5CCOCC5)o4)c2S3)C[C@H](C)O1` + Cc1nc(NC(=O)N2CCC[C@H]2C(N)=O)sc1-c1ccnc(C(C)(C)C(F)(F)F)c1 [Alpelisib] (partner 2 µM) yielded a relative viability ([1]; first compound 0.04 µM) of 1.12, a relative viability ([1]; first compound 0.1265 µM) of 1.08 and a relative viability ([1]; first compound 0.4 µM) of 1.07. It also gave a relative viability ([1]; first compound 4 µM) of 1.07, a relative viability ([2]; first compound 0.04 µM) of 1.33 and a relative viability ([2]; first compound 0.1265 µM) of 1.37. For the same molecule, the relative viability ([2]; first compound 0.4 µM) was 1.19, the relative viability ([2]; first compound 4 µM) was 0.841 and the relative viability ([3]; first compound 0.04 µM) was 1.09. The relative viability ([3]; first compound 0.1265 µM) was 0.998, the relative viability ([3]; first compound 0.4 µM) was 1.04 and the relative viability ([3]; first compound 4 µM) was 0.896. It also gave a relative viability ([4]; first compound 0.04 µM) of 0.748, a relative viability ([4]; first compound 0.1265 µM) of 0.771 and a relative viability ([4]; first compound 0.4 µM) of 0.726. For the same molecule, the relative viability ([4]; first compound 4 µM) was 0.73, the relative viability ([5]; first compound 0.04 µM) was 0.81 and the relative viability ([5]; first compound 0.1265 µM) was 0.637. For the same molecule, the relative viability ([5]; first compound 0.4 µM) was 0.711, the relative viability ([5]; first compound 4 µM) was 0.78 and the relative viability ([6]; first compound 0.04 µM) was 0.379. For the same molecule, the relative viability ([6]; first compound 0.1265 µM) was 0.414, the relative viability ([6]; first compound 0.4 µM) was 0.315 and the relative viability ([6]; first compound 4 µM) was 0.368. The relative viability ([7]; first compound 0.04 µM) was 1.02, the relative viability ([7]; first compound 0.1265 µM) was 0.988 and the relative viability ([7]; first compound 0.4 µM) was 0.938. It also gave a relative viability ([7]; first compound 4 µM) of 0.978, a relative viability ([8]; first compound 0.04 µM) of 1.08 and a relative viability ([8]; first compound 0.1265 µM) of 1.05. For the same molecule, the relative viability ([8]; first compound 0.4 µM) was 0.939, the relative viability ([8]; first compound 4 µM) was 1.07 and the relative viability ([9]; first compound 0.04 µM) was 1.02. The relative viability ([9]; first compound 0.1265 µM) was 0.892, the relative viability ([9]; first compound 0.4 µM) was 0.845 and the relative viability ([9]; first compound 4 µM) was 1.02. The relative viability ([10]; first compound 0.04 µM) was 0.856, the relative viability ([10]; first compound 0.1265 µM) was 0.759 and the relative viability ([10]; first compound 0.4 µM) was 0.862. The relative viability ([10]; first compound 4 µM) was 0.827, the relative viability ([11]; first compound 0.04 µM) was 0.958 and the relative viability ([11]; first compound 0.1265 µM) was 1.08. It also gave a relative viability ([11]; first compound 0.4 µM) of 1.05, a relative viability ([11]; first compound 4 µM) of 1.08 and a relative viability ([12]; first compound 0.04 µM) of 1.04. It also gave a relative viability ([12]; first compound 0.1265 µM) of 1.01, a relative viability ([12]; first compound 0.4 µM) of 0.813 and a relative viability ([12]; first compound 4 µM) of 0.797. For the same molecule, the relative viability ([13]; first compound 0.04 µM) was 0.934, the relative viability ([13]; first compound 0.1265 µM) was 0.88 and the relative viability ([13]; first compound 0.4 µM) was 0.845. For the same molecule, the relative viability ([13]; first compound 4 µM) was 0.863, the relative viability ([14]; first compound 0.04 µM) was 0.685 and the relative viability ([14]; first compound 0.1265 µM) was 0.677. The relative viability ([14]; first compound 0.4 µM) was 0.707, the relative viability ([14]; first compound 4 µM) was 0.665 and the relative viability ([15]; first compound 0.04 µM) was 1.02. The relative viability ([15]; first compound 0.1265 µM) was 1.08, the relative viability ([15]; first compound 0.4 µM) was 1.1 and the relative viability ([15]; first compound 4 µM) was 1.04. For the same molecule, the relative viability ([16]; first compound 0.04 µM) was 0.666, the relative viability ([16]; first compound 0.1265 µM) was 0.587 and the relative viability ([16]; first compound 0.4 µM) was 0.551. The relative viability ([16]; first compound 4 µM) was 0.438, the relative viability ([17]; first compound 0.04 µM) was 1.23 and the relative viability ([17]; first compound 0.1265 µM) was 1.09. The relative viability ([17]; first compound 0.4 µM) was 1.09, the relative viability ([17]; first compound 4 µM) was 0.974 and the relative viability ([18]; first compound 0.04 µM) was 0.708. It also gave a relative viability ([18]; first compound 0.1265 µM) of 0.707, a relative viability ([18]; first compound 0.4 µM) of 0.754 and a relative viability ([18]; first compound 4 µM) of 0.485. For the same molecule, the relative viability ([19]; first compound 0.04 µM) was 0.715, the relative viability ([19]; first compound 0.1265 µM) was 0.639 and the relative viability ([19]; first compound 0.4 µM) was 0.624. For the same molecule, the relative viability ([19]; first compound 4 µM) was 0.727, the relative viability ([20]; first compound 0.04 µM) was 0.517 and the relative viability ([20]; first compound 0.1265 µM) was 0.416. The relative viability ([20]; first compound 0.4 µM) was 0.355, the relative viability ([20]; first compound 4 µM) was 0.265 and the relative viability ([21]; first compound 0.04 µM) was 0.685. For the same molecule, the relative viability ([21]; first compound 0.1265 µM) was 0.612, the relative viability ([21]; first compound 0.4 µM) was 0.502 and the relative viability ([21]; first compound 4 µM) was 0.479. For the same molecule, the relative viability ([22]; first compound 0.04 µM) was 1.21, the relative viability ([22]; first compound 0.1265 µM) was 1.05 and the relative viability ([22]; first compound 0.4 µM) was 0.936. For the same molecule, the relative viability ([22]; first compound 4 µM) was 0.645, the relative viability ([23]; first compound 0.04 µM) was 0.867 and the relative viability ([23]; first compound 0.1265 µM) was 0.852. The relative viability ([23]; first compound 0.4 µM) was 0.771 and the relative viability ([23]; first compound 4 µM) was 0.753.
